We go through 1 molecule from ChEMBL document CHEMBL5113558, “Discovery of Potent PROTACs for the Potential Treatment of Leukemia” (ACS Med Chem Lett, 2022).

pEC50: −log10 of the molar value.

The target of the assay is Protein cereblon/Tyrosine-protein kinase JAK2 (Homo sapiens, UniProt O60674+Q96SW2). The assay can be described thus: Protac activity at E3 ubiquitin ligase/JAK2 in human MHH-CALL-4 cells assessed as E3 ubiquitin ligase mediated JAK2 degradation incubated for 32 hrs by immunoblotting analysis. Format: cell-based, MHHCALL4.
Protein cereblon/Tyrosine-protein kinase JAK2, sequence (O60674 whole entry): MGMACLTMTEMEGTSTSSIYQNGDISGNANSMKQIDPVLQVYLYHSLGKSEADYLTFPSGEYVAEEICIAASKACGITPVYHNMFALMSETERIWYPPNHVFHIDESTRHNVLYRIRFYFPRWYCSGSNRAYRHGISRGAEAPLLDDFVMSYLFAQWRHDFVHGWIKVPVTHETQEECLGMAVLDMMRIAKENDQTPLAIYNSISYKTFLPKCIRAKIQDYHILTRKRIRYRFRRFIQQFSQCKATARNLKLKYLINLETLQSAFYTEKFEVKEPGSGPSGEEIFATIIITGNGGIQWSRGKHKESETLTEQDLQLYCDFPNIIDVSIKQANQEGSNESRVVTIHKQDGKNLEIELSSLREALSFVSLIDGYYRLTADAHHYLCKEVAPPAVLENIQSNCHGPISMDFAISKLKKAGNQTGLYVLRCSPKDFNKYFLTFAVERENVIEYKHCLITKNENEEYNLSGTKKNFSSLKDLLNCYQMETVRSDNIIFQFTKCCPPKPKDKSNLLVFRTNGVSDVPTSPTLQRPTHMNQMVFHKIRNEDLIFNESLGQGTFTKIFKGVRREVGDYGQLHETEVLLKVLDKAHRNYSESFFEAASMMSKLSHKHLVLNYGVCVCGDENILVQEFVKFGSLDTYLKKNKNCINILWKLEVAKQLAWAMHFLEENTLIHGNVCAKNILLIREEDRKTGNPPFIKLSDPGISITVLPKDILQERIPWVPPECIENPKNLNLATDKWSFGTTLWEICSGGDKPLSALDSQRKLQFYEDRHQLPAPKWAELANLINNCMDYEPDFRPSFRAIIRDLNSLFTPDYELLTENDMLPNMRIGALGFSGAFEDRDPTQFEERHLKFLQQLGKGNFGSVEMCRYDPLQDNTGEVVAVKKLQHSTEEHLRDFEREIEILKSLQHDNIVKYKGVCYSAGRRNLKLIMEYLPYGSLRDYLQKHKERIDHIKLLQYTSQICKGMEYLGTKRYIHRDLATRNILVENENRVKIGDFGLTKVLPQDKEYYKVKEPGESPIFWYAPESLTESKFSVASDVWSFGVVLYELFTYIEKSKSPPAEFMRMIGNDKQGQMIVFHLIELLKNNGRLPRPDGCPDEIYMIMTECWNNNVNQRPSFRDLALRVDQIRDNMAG
Protein cereblon/Tyrosine-protein kinase JAK2, sequence (Q96SW2 whole entry): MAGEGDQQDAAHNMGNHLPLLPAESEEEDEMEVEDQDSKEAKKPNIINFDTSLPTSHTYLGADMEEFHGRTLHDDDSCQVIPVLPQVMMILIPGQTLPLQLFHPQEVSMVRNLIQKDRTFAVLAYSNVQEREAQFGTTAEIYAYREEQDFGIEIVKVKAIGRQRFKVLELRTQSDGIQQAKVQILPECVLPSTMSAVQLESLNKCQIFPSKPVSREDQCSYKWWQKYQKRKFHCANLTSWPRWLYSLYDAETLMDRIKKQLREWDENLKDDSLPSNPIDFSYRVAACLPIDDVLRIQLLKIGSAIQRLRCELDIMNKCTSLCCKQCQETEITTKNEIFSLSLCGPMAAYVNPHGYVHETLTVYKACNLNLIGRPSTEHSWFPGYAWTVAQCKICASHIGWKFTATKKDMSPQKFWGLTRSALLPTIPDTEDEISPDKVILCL

`CCCn1cc(-c2nc(Nc3ccc(C(=O)NCCCCCc4cccc5c4CN(C4CCC(=O)NC4=O)C5=O)cc3)nc3[nH]ccc23)cn1` (stereo unspecified): the pEC50 was 9.30.
